# In ChEMBL document CHEMBL5291721, “A preclinical secondary pharmacology resource illuminates target-adverse drug reaction associations of marketed drugs” (Nat Commun, 2023):
# Tests used:
# [1] = target: T1, Alpha-1A adrenergic receptor (Homo sapiens, UniProt P35348); format: functional, cell-based
# T1 sequence (P35348 whole entry): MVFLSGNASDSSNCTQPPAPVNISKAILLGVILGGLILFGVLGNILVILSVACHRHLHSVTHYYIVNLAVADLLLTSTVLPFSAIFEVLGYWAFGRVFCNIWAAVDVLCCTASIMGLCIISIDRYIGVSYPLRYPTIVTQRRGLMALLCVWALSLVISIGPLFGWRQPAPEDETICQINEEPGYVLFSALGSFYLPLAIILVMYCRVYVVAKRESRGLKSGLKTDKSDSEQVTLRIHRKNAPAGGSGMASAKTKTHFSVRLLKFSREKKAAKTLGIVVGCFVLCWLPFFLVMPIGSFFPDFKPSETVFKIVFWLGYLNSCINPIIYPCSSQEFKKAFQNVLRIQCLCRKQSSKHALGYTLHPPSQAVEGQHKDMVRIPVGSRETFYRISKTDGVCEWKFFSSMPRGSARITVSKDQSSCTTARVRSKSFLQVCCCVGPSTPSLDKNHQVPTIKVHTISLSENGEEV
# Estrogen receptor = target: T2, Estrogen receptor (Homo sapiens, UniProt P03372)
# T2 sequence (P03372 whole entry): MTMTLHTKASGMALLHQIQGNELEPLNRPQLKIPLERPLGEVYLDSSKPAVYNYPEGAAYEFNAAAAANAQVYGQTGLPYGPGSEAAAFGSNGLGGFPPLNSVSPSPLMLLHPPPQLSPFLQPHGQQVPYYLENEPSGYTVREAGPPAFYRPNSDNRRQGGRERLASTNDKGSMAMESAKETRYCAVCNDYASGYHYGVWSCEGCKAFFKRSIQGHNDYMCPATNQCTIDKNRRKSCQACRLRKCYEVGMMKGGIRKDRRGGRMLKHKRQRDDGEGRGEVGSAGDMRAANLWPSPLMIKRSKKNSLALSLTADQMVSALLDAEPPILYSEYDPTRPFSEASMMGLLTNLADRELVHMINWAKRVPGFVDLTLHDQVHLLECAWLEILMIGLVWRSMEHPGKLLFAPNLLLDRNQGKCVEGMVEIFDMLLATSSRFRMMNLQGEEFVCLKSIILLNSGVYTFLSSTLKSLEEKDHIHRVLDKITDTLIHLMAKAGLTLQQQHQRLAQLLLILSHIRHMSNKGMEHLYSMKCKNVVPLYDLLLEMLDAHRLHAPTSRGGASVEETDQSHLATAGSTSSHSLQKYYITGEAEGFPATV
# [2] = target: T3, 5-hydroxytryptamine receptor 1A (Homo sapiens, UniProt P08908); format: functional, cell-based
# T3 sequence (P08908 whole entry): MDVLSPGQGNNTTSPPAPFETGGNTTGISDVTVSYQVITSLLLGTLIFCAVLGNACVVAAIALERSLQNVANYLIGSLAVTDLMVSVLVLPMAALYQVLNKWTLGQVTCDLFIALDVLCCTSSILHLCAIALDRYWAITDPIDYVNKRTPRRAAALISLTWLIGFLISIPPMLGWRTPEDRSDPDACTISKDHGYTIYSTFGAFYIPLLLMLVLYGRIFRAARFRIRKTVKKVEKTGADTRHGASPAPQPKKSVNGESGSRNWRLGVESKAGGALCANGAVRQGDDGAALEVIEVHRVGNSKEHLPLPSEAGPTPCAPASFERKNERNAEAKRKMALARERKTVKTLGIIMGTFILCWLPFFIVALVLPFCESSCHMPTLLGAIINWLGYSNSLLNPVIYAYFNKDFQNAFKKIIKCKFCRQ
# [3] = target: T4, Gamma-aminobutyric acid receptor subunit alpha-1 (Rattus norvegicus, UniProt P62813); format: functional
# T4 sequence (P62813 whole entry): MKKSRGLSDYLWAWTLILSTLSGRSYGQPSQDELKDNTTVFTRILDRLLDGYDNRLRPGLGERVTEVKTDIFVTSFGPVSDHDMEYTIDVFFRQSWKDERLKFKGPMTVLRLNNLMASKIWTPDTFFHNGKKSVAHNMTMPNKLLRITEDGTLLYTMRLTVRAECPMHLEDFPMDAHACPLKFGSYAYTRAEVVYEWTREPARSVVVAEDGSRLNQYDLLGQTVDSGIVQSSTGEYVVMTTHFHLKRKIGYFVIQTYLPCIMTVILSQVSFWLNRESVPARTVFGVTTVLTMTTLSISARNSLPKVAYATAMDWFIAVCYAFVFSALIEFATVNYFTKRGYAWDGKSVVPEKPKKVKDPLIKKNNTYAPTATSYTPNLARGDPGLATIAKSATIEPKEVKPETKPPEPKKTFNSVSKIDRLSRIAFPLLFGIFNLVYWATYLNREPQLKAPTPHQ
# [4] = target: cGMP-inhibited 3',5'-cyclic phosphodiesterase 3A (Homo sapiens, UniProt Q14432); format: functional
# Chain of cGMP-inhibited 3',5'-cyclic phosphodiesterase 3A (Q14432 whole entry): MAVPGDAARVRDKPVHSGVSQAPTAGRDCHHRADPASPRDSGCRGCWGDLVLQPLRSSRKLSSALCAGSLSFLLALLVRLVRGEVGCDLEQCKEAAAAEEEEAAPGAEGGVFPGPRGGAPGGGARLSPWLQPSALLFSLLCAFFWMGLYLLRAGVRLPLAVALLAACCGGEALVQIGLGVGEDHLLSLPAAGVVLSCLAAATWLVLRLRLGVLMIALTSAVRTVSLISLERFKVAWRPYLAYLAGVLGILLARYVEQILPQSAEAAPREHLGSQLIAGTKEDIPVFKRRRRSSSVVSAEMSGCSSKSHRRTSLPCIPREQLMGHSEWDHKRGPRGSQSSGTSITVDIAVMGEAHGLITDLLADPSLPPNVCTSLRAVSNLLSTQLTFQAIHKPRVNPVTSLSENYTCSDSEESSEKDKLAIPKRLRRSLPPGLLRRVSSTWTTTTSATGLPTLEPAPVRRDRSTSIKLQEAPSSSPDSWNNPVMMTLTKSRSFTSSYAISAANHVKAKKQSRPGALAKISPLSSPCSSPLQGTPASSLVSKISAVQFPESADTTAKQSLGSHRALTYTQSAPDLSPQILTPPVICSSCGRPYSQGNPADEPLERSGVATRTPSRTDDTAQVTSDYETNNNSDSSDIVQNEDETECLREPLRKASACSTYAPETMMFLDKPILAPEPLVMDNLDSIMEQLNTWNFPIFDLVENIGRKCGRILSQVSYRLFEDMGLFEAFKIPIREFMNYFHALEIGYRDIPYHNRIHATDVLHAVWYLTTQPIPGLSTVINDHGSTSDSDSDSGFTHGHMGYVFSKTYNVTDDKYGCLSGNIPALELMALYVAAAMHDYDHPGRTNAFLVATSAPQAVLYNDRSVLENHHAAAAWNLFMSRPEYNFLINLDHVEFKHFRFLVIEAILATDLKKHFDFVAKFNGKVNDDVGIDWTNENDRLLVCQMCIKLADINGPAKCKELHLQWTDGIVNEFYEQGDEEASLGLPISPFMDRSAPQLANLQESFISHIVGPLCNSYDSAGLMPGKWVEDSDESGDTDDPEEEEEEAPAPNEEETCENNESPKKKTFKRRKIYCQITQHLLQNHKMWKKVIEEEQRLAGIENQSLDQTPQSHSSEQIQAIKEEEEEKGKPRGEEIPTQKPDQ
# D(3) dopamine receptor = D(3) dopamine receptor (Homo sapiens, UniProt P35462)
# Chain of D(3) dopamine receptor (P35462 whole entry): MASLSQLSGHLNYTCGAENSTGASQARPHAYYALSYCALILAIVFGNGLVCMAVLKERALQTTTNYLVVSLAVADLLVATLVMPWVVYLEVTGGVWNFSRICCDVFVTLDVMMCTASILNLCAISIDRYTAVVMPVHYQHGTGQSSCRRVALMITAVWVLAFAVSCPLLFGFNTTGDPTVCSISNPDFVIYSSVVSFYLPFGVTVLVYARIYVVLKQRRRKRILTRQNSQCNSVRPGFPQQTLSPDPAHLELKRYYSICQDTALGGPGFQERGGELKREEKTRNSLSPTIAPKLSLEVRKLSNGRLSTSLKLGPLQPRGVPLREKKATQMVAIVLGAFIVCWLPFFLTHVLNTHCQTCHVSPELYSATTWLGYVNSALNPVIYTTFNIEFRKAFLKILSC
# [5] = target: Glutamate receptor ionotropic, NMDA 1 (Rattus norvegicus, UniProt P35439)
# [6] = target: Beta-1 adrenergic receptor (Homo sapiens, UniProt P08588); format: functional
# Chain of Beta-1 adrenergic receptor (P08588 whole entry): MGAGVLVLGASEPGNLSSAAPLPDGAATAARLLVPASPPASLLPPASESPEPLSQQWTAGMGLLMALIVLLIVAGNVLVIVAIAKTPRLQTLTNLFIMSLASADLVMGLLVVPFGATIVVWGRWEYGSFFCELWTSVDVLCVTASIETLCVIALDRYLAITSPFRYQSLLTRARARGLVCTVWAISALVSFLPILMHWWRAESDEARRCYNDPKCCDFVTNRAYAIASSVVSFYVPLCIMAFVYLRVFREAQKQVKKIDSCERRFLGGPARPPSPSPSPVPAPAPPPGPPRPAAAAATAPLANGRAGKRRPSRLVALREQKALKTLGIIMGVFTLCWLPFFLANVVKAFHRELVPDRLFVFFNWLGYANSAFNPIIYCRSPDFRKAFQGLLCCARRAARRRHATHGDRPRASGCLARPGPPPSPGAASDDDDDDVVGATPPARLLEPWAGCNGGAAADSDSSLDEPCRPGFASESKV
# [7] = target: 5-hydroxytryptamine receptor 2B (Homo sapiens, UniProt P41595); format: functional, cell-based
# Chain of 5-hydroxytryptamine receptor 2B (P41595 whole entry): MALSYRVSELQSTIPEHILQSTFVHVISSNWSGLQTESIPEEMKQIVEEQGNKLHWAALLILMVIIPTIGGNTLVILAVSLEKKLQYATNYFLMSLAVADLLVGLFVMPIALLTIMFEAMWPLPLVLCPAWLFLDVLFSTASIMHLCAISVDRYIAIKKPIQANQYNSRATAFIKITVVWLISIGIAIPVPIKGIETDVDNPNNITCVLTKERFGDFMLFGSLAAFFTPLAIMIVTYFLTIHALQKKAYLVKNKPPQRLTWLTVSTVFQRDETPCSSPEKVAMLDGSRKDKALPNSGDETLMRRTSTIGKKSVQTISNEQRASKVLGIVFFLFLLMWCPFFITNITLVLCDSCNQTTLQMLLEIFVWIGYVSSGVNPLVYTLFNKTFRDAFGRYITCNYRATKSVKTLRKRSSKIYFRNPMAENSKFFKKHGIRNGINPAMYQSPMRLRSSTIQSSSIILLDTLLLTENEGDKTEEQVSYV
# [8] = target: Voltage-dependent L-type calcium channel subunit alpha-1C (Rattus norvegicus, UniProt P22002); format: functional
# [9] = target: T4, Gamma-aminobutyric acid receptor subunit alpha-1
# [10] = target: Sodium-dependent dopamine transporter (Homo sapiens, UniProt Q01959)
# Chain of Sodium-dependent dopamine transporter (Q01959 whole entry): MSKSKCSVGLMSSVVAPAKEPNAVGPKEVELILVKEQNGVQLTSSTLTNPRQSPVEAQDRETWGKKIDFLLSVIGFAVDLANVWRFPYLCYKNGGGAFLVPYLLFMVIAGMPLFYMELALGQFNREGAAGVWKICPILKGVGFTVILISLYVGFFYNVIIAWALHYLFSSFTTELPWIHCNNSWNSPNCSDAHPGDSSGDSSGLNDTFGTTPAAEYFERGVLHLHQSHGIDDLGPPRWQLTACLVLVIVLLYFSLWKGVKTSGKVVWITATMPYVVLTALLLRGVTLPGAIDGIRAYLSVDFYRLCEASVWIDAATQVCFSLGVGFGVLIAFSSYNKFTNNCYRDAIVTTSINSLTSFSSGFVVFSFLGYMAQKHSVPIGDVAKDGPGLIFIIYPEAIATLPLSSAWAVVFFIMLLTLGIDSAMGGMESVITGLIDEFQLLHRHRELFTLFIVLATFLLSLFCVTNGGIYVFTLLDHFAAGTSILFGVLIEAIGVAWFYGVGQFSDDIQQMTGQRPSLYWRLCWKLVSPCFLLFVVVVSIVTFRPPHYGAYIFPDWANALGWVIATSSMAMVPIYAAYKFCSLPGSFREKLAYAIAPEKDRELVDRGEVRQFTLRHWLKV
# Glucocorticoid receptor = target: T5, Glucocorticoid receptor (Homo sapiens, UniProt P04150)
# T5 sequence (P04150 whole entry): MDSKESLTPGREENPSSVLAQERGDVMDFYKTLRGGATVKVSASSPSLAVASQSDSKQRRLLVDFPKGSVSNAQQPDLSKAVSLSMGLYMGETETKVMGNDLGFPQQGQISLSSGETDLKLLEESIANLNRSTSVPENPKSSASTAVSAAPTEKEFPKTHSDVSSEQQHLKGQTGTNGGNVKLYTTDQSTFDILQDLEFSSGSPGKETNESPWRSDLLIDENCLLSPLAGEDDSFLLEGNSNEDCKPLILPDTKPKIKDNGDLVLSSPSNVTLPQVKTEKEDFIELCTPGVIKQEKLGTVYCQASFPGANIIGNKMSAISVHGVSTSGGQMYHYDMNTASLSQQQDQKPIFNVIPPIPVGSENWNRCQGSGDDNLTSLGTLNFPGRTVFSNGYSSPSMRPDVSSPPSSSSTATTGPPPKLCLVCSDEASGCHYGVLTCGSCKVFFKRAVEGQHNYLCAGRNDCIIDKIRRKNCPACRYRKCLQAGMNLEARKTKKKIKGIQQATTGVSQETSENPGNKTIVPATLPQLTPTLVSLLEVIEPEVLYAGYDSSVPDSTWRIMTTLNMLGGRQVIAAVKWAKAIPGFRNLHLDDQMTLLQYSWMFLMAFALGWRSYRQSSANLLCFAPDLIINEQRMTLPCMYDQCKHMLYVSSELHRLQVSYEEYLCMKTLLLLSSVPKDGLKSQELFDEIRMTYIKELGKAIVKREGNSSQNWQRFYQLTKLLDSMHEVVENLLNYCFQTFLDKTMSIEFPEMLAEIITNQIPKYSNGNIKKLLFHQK
# Further: assay procedure not described here.
SMILES,AC50 [1],AC50 (Estrogen receptor),AC50 [3],AC50 [4],AC50 (D(3) dopamine receptor),AC50 [5],AC50 [6],AC50 [7],AC50 [8],AC50 [9],AC50 [10],also measured
CN1CCC[C@@H]1Cc1c[nH]c2ccc(CCS(=O)(=O)c3ccccc3)cc12,> 30 µM,,,,,,,,,,,
COc1nccnc1NS(=O)(=O)c1ccc(N)cc1,> 30 µM,,,,,,,,,,,
O=C(Nc1cccc2c(=O)cc(-c3nnn[nH]3)oc12)c1ccc(OCCCCc2ccccc2)cc1,> 30 µM,,,,,,,,,,,
NC(=O)c1nc(F)c[nH]c1=O,> 30 µM,> 30 µM,,,,,,,,,,
CN(C)CCCN1C(=O)c2cc([N+](=O)[O-])ccc2Oc2ccccc21,> 30 µM,> 30 µM,,,,,,,,,,
O=S(=O)(O)CCS [2-MERCAPTOETHANESULFONIC ACID],> 30 µM,> 30 µM,,,,,,,,,,
CC1(C)S[C@@H]2[C@H](NC(=O)[C@H](N)c3ccc(O)cc3)C(=O)N2[C@H]1C(=O)O [AMOXICILLIN],,,> 30 µM,> 30 µM,> 30 µM,> 30 µM,> 30 µM,> 30 µM,> 30 µM,> 30 µM,> 30 µM,AC50 [2]: > 10 µM
CNCC[C@@H](Oc1ccccc1C)c1ccccc1 [ATOMOXETINE],,,,> 30 µM,26 µM,,> 30 µM,25 µM,> 30 µM,,,AC50 (Glucocorticoid receptor): > 30 µM
O=C(O)COc1nn(Cc2ccccc2)c2ccccc12 [BENDAZAC],> 30 µM,> 30 µM,,,,,,,,,,
Cc1ccc([C@@H]2O[C@H](CO)[C@@H](O)[C@H](O)[C@H]2O)cc1Cc1ccc(-c2ccc(F)cc2)s1 [CANAGLIFLOZIN ANHYDROUS],> 30 µM,> 30 µM,,,,,,,,,,
O=C(O)CCCc1ccc(N(CCCl)CCCl)cc1 [CHLORAMBUCIL],> 30 µM,> 30 µM,,,,,,,,,,
CN(C)CCN(Cc1ccc(Cl)cc1)c1ccccn1 [CHLOROPYRAMINE],> 30 µM,,,,,,,,,,,
O=C(O)c1cc(=O)c2ccccc2o1 [CHROMOCARB],> 30 µM,> 30 µM,,,,,,,,,,
Clc1cccc(Cl)c1N=C1NCCN1 [CLONIDINE],,,> 10 µM,> 30 µM,> 10 µM,> 10 µM,> 10 µM,> 10 µM,> 10 µM,> 10 µM,> 10 µM,AC50 [2]: > 10 µM; AC50 (Glucocorticoid receptor): > 30 µM
CN(CC(=O)O)C(=N)N [CREATINE],> 30 µM,> 30 µM,,,,,,,,,,
N[C@@H](CSSC[C@H](N)C(=O)O)C(=O)O [CYSTINE],> 30 µM,,,,,,,,,,,
CN1C[C@H](C(=O)N[C@]2(C)O[C@@]3(O)[C@@H]4CCCN4C(=O)[C@H](Cc4ccccc4)N3C2=O)C[C@@H]2c3cccc4[nH]cc(c34)C[C@H]21 [DIHYDROERGOTAMINE],,,> 10 µM,> 30 µM,0.055 µM,> 10 µM,> 10 µM,,> 10 µM,> 10 µM,> 30 µM,AC50 (Glucocorticoid receptor): > 30 µM
CNCC[C@H](Oc1cccc2ccccc12)c1cccs1 [DULOXETINE],,,> 10 µM,> 30 µM,4.6 µM,> 10 µM,15 µM,12 µM,> 10 µM,> 10 µM,,AC50 (Glucocorticoid receptor): > 30 µM
Cn1c(=O)c2c(ncn2CC(O)CO)n(C)c1=O (stereo not given) [DYPHYLLINE],> 30 µM,> 30 µM,,,,,,,,,,
C[C@]12CC[C@@H]3c4ccc(O)cc4CC[C@H]3[C@@H]1CC[C@@H]2OC(=O)CCC1CCCC1 [ESTRADIOL CYPIONATE],> 30 µM,0.379 µM,,,,,,,,,,
CC1(C)O[C@@H]2C[C@H]3[C@@H]4CCC5=CC(=O)CC[C@]5(C)[C@@]4(F)[C@@H](O)C[C@]3(C)[C@]2(C(=O)CCl)O1 [HALCINONIDE],> 30 µM,> 30 µM,,,,,,,,,,
C#C[C@]1(O)CC[C@H]2[C@@H]3CCC4=C(CCC(=O)C4)[C@H]3CC[C@@]21C [NORETHYNODREL],> 30 µM,,,,,,,,,,,
CNCCC=C1c2ccccc2CCc2ccccc21 [NORTRIPTYLINE],,,> 30 µM,,,,,0.73 µM,> 30 µM,> 30 µM,3.2 µM,AC50 [2]: 8 µM; AC50 (Glucocorticoid receptor): > 30 µM
COc1ccc(Cc2nccc3cc(OC)c(OC)cc23)cc1OC [PAPAVERINE],,,> 30 µM,,> 30 µM,> 30 µM,> 30 µM,> 30 µM,> 30 µM,> 30 µM,> 30 µM,
CN(C)CCC(c1ccccc1)c1ccccn1 (stereo not given) [PHENIRAMINE],> 30 µM,,,,,,,,,,,
CNC[C@H](O)c1cccc(O)c1 [PHENYLEPHRINE],,,> 10 µM,> 30 µM,4.1 µM,> 10 µM,,> 30 µM,> 10 µM,> 30 µM,> 10 µM,AC50 [2]: > 10 µM
NC(=O)c1ncn([C@@H]2O[C@H](CO)[C@@H](O)[C@H]2O)n1 [RIBAVIRIN],,,> 10 µM,> 30 µM,> 30 µM,> 10 µM,> 10 µM,> 10 µM,> 10 µM,> 10 µM,> 10 µM,AC50 (Glucocorticoid receptor): > 10 µM
O=C(Nc1c(Cl)cncc1Cl)c1ccc(OC(F)F)c(OCC2CC2)c1 [ROFLUMILAST],,,> 30 µM,> 30 µM,> 30 µM,> 30 µM,> 30 µM,> 30 µM,,> 30 µM,> 30 µM,AC50 (Glucocorticoid receptor): > 30 µM
CCCCNc1ccc(C(=O)OCCN(C)C)cc1 [TETRACAINE],> 30 µM,,> 10 µM,> 30 µM,22 µM,> 10 µM,> 10 µM,33 µM,> 10 µM,> 10 µM,> 10 µM,AC50 [2]: > 10 µM; AC50 (Glucocorticoid receptor): > 30 µM
CCCCCCCCCCCCCCCC(=O)OC/C=C(C)/C=C/C=C(C)/C=C/C1=C(C)CCCC1(C)C [VITAMIN A PALMITATE],> 30 µM,,,,,,,,,,,
